In publication PMC3063124 (The Journal of neuroscience : the official journal of the …, 2011):
“And” between values parts separate entries of the source, which are not always exact repeats. Identical values can stand only once. Like-named read-outs stand apart in the source and are kept apart here. Marks after values point to notes of the source that are not given here.

Key:
Assay type in all cases: cell-based
[1] = target: GluN1/GluN2D (Rattus norvegicus, UniProt Q62645)
[2] = target: GluN1/GluN2B (Rattus norvegicus, UniProt Q00960)
[3] = target: GluN1/GluN2D L705F (Rattus norvegicus, UniProt P35439+Q62645, L705F); test: Two-electrode voltage-clamp recordings, mutant receptor in Xenopus oocytes
[4] = target: GluN1/GluN2D L705F (Rattus norvegicus, UniProt Q62645, L705F); test: as above
[5] = target: GluN1/GluN2D Y729A (Rattus norvegicus, UniProt P35439+Q62645, Y729A); test: as above
[6] = target: GluN1/GluN2D Y729A (Rattus norvegicus, UniProt Q62645, Y729A); test: as above
[7] = target: GluN1/GluN2D Q701Y (Rattus norvegicus, UniProt Q62645, Q701Y); test: as above
[8] = target: GluN1/GluN2D Q701Y (Rattus norvegicus, UniProt P35439+Q62645, Q701Y); test: as above
[9] = target: GluN1/GluN2D QEQY/HDYS + L705F + K779Y (Rattus norvegicus, UniProt P35439+Q62645, E700D/K779Y/L705F/Q699H/Q701Y/Y702S); test: as above
[10] = target: GluN1/GluN2D QEQY/HDYS + L705F + K779Y (Rattus norvegicus, UniProt Q62645, E700D/K779Y/L705F/Q699H/Q701Y/Y702S); test: as above
[11] = target: GluN1/2A-(2D S1+S2) chimera (Rattus norvegicus, UniProt Q00959+Q62645); test: Two-electrode voltage-clamp recordings, chimeric receptor in Xenopus oocytes
[12] = target: GluN1/GluN2D Y723A (Rattus norvegicus, UniProt Q62645, Y723A); test: Two-electrode voltage-clamp recordings, mutant receptor in Xenopus oocytes
[13] = target: GluN1/GluN2D Y723A (Rattus norvegicus, UniProt P35439+Q62645, Y723A); test: as above
[14] = target: GluN1/GluN2D A752V (Rattus norvegicus, UniProt P35439+Q62645, A752V); test: as above
[15] = target: GluN1/GluN2D A752V (Rattus norvegicus, UniProt Q62645, A752V); test: as above
[16] = target: GluN1/GluN2D QEQY/HDYS (Rattus norvegicus, UniProt P35439+Q62645, E700D/Q699H/Q701Y/Y702S); test: as above
[17] = target: GluN1/GluN2D QEQY/HDYS (Rattus norvegicus, UniProt Q62645, E700D/Q699H/Q701Y/Y702S); test: as above
[18] = target: GluN1/2A-(2D S2) chimera (Rattus norvegicus, UniProt Q00959+Q62645); test: Two-electrode voltage-clamp recordings, chimeric receptor in Xenopus oocytes
[19] = target: GluN1/GluN2D (Rattus norvegicus, UniProt P35439+Q62645)
[20] = fold shift relative to GluN1/GluN2D

Chain of GluN1/GluN2B (Q00960 27-1482, other chains not shown): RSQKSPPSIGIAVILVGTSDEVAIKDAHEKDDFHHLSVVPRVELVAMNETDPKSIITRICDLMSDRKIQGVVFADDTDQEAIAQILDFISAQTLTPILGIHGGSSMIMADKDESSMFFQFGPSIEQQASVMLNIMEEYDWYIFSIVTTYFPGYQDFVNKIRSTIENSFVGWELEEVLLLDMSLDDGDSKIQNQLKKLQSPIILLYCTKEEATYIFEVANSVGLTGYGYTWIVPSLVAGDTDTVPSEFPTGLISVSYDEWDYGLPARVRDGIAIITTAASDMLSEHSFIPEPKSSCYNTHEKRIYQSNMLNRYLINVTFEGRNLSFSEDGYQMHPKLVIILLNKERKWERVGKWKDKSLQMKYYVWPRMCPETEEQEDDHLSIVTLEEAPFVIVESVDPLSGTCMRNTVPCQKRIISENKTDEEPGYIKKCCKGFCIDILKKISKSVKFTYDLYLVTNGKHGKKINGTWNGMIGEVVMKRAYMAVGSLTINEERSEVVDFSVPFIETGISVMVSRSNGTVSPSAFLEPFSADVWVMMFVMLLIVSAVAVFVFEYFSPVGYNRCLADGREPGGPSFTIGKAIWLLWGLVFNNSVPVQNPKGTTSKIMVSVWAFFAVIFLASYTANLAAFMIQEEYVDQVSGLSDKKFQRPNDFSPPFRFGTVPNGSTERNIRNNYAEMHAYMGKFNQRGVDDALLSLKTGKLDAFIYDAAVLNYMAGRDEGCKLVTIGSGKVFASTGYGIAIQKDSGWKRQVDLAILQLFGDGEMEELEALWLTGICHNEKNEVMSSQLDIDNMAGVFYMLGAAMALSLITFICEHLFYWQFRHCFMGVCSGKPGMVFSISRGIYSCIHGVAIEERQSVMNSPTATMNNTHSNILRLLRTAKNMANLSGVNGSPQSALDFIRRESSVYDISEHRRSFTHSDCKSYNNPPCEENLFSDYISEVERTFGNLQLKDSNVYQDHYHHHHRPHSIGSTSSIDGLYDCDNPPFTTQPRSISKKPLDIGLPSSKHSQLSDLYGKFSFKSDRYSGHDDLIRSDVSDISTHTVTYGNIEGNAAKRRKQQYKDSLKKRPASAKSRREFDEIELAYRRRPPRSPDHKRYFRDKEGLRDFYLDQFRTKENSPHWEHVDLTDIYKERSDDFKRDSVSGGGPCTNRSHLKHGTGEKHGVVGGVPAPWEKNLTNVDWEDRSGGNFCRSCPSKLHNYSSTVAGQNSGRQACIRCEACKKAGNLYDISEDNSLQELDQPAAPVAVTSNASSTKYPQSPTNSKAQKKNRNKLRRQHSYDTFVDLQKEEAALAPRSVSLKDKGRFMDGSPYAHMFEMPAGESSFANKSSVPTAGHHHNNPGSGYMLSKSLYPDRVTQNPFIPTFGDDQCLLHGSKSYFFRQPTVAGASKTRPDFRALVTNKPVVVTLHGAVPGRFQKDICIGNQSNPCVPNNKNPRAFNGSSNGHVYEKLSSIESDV

COc1ccc2nc(/C=C/c3cccc([N+](=O)[O-])c3)n(-c3ccc(C(=O)O)cc3)c(=O)c2c1 [QNZ46, (E)-4-(6-methoxy-2-(3-nitrostyryl)-4-oxoquinazolin-3(4H)-yl)-benzoic acid]
nH (Hill slope) [1]: 1.1
selectivity for GluN2C- and GluN2D-containing receptors over receptors containing GluN2A or GluN2B [1]: ~ 50 fold
Relative IC50 (IC50 2X / IC50 2D) [1, 20]: 1.0
difference in QNZ46 IC50 values between GluN2A- and GluN2D-containing receptors ([1]; rat, xenopus oocytes): ~ 50 fold and 50 fold
nH (Hill slope) ([2]; fixed during fitting to the Hill equation): 1.0 ^a
Relative IC50 (IC50 2X / IC50 2D) [2, 20]: 49
IC50 [3]: 23 ± 2 µM
nH (Hill slope) [4]: 1.1
Relative IC50 (IC50 2X / IC50 2D) ([4]; fold shift relative to GluN2D): 5.9
IC50 [5]: 0.7 ± 0.04 µM
nH (Hill slope) [6]: 1.0
Relative IC50 (IC50 2X / IC50 2D) ([6]; fold shift relative to GluN2D): 0.2
nH (Hill slope) [7]: 1.0
Relative IC50 (IC50 2X / IC50 2D) ([7]; fold shift relative to GluN2D): 2.0
IC50 [8]: 7.7 ± 0.7 µM
IC50 [9]: 15 ± 1 µM
nH (Hill slope) [10]: 1.0
Relative IC50 (IC50 2X / IC50 2D) ([10]; fold shift relative to GluN2D): 3.8
nH (Hill slope) [11]: 1.1
Relative IC50 (IC50 2X / IC50 2D) ([11]; fold shift relative to GluN2D): 1.2
nH (Hill slope) [12]: 1.3
Relative IC50 (IC50 2X / IC50 2D) ([12]; fold shift relative to GluN2D): 1.9
IC50 [13]: 7.6 ± 0.6 µM
IC50 [14]: 16 ± 1 µM
nH (Hill slope) [15]: 1.0
Relative IC50 (IC50 2X / IC50 2D) ([15]; fold shift relative to GluN2D): 4.1
IC50 [16]: 10 ± 1 µM
nH (Hill slope) [17]: 1.0
Relative IC50 (IC50 2X / IC50 2D) ([17]; fold shift relative to GluN2D): 2.6
nH (Hill slope) [18]: 1.1
Relative IC50 (IC50 2X / IC50 2D) ([18]; fold shift relative to GluN2D): 1.2
Kd [19]: 4.9 µM
inhibition at 1 µM ([19]; HEK293, read-out: % inhibition of steady-state responses, 1 μM QNZ46 applied after activation): 23 ± 1%
inhibition at 1 µM ([19]; HEK293, read-out: % inhibition of steady-state responses, 1 μM QNZ46 present before, during, and after activation): 28 ± 3%
inhibition at 3 µM ([19]; HEK293, read-out: % inhibition of steady-state responses, 3 μM QNZ46 applied after activation): 50 ± 2%
inhibition at 3 µM ([19]; HEK293, read-out: % inhibition of steady-state responses, 3 μM QNZ46 present before, during, and after activation): 46 ± 3%
inhibition at 10 µM ([19]; HEK293, read-out: % inhibition of steady-state responses, 10 μM QNZ46 applied after activation): 75 ± 1%
inhibition at 10 µM ([19]; HEK293, read-out: % inhibition of steady-state responses, 10 μM QNZ46 present before, during, and after activation): 73 ± 2%
inhibition at 20 µM ([19]; HEK293, read-out: % inhibition of steady-state responses, 20 μM QNZ46 applied after activation): 88 ± 1%
inhibition at 20 µM ([19]; HEK293, read-out: % inhibition of steady-state responses, 20 μM QNZ46 present before, during, and after activation): 85 ± 2%
